Measured values as given in ChEMBL document CHEMBL5321270, “Discovery of Pyrazolone Carbothioamide Derivatives as Inhibitors of the Pdr1-KIX Interaction for Combinational Treatment of Azole-Resistant Candidiasis” (J Med Chem, 2023).
Values after ≈ are worked out from the molar mass of the structure shown. Active and inactive are the calls of the source. The calls are words filed in the database; no cut-off is given here.

Columns and labels:
[1] = Inhibition of fluorescent probe FITC tagged PDR1-KIX domain (unknown origin) protein-protein interaction assessed as inhibition constant incubated for 2 hrs by fluorescence polarization binding assay
Nakaseomyces glabratus [2] = assay: Antifungal activity against fluconazole-resistant Candida glabrata 0161 assessed as fungal growth inhibition incubated for 48 hrs by microplate reader assay; type: functional
Nakaseomyces glabratus [3] = assay: Antifungal activity against fluconazole-resistant Candida glabrata 0161 assessed as fractional inhibitory concentration incubated for 48 hrs in presence of fluconazole by microplate reader assay; type: functional
Nakaseomyces glabratus [4] = assay: Antifungal activity against fluconazole-resistant Candida glabrata 0161 assessed as fluconazole fractional inhibitory concentration incubated for 48 hrs in presence of fluconazole by microplate reader assay; type: functional
Nakaseomyces glabratus [5] = assay: Synergistic antifungal activity against fluconazole-resistant Candida glabrata 0161 assessed as fractional inhibitory concentration index incubated for 48 hrs in presence of fluconazole by checkerboard microdilution method; type: functional
Nakaseomyces glabratus [6] = assay: Antifungal activity against fluconazole-sensitive Candida glabrata 7669 assessed as fungal growth inhibition incubated for 48 hrs by microplate reader assay; type: functional, organism-based
Nakaseomyces glabratus [7] = assay: Antifungal activity against fluconazole-resistant Candida glabrata 9256 assessed as fungal growth inhibition incubated for 48 hrs by microplate reader assay; type: functional
Nakaseomyces glabratus [8] = assay: Antifungal activity against fluconazole-resistant Candida glabrata 8535 assessed as fungal growth inhibition incubated for 48 hrs by microplate reader assay; type: functional
Candida albicans [9] = assay: Antifungal activity against Candida albicans 103 assessed as fungal growth inhibition incubated for 48 hrs by microplate reader assay; type: functional, organism-based
Candida albicans [10] = assay: Antifungal activity against Candida albicans 5314 assessed as fungal growth inhibition incubated for 48 hrs by microplate reader assay; type: functional, organism-based
Candida albicans [11] = assay: Antifungal activity against Candida albicans 0029 assessed as fungal growth inhibition incubated for 48 hrs by microplate reader assay; type: functional, organism-based
Candida albicans [12] = assay: Antifungal activity against Candida albicans assessed as fungal growth inhibition incubated for 48 hrs by microplate reader assay; type: functional
Candida tropicalis = assay: Antifungal activity against Candida tropicalis 10186 assessed as fungal growth inhibition incubated for 48 hrs by microplate reader assay; type: functional
Candida parapsilosis = assay: Antifungal activity against Candida parapsilosis 20090 assessed as fungal growth inhibition incubated for 48 hrs by microplate reader assay; type: functional; details: Lodderomyces parapsilosis
[Candida] auris [13] = Antifungal activity against Candida auris 0030 assessed as fungal growth inhibition incubated for 48 hrs by microplate reader assay; type: functional; details: Candidozyma auris
[Candida] auris [14] = Antifungal activity against Candida auris 15448 assessed as fungal growth inhibition incubated for 48 hrs by microplate reader assay; type: functional; details: Candidozyma auris
Aspergillus fumigatus = assay: Antifungal activity against Aspergillus fumigatus 7544 assessed as fungal growth inhibition incubated for 48 hrs by microplate reader assay; type: functional
Nannizzia gypsea = assay: Antifungal activity against Microsporum gypseum assessed as fungal growth inhibition incubated for 48 hrs by microplate reader assay; type: functional
Trichophyton rubrum = assay: Antifungal activity against Trichophyton rubrum assessed as fungal growth inhibition incubated for 48 hrs by microplate reader assay; type: functional
Cryptococcus neoformans = assay: Antifungal activity against Cryptococcus neoformans H99 assessed as fungal growth inhibition incubated for 48 hrs by microplate reader assay; type: functional

| Compound | Ki [1] | MIC (Nakaseomyces glabratus [2]) | FIC (Nakaseomyces glabratus [3]) | fluconazole MIC in combination (Nakaseomyces glabratus [4]) | fractional inhibitory concentration index (FICI) (Nakaseomyces glabratus [5]) | Activity (Nakaseomyces glabratus [6]) | Activity (Nakaseomyces glabratus [7]) | Activity (Nakaseomyces glabratus [8]) | Activity (Candida albicans [9]) | Activity (Candida albicans [10]) | Activity (Candida albicans [11]) | further results |
| --- | --- | --- | --- | --- | --- | --- | --- | --- | --- | --- | --- | --- |
| N#CCC(=O)NNC(=S)Nc1ccc(I)cc1 | 153 µM | 16 µg/mL (≈ 44.4 µM) | 2 µg/mL | 4 µg/mL | 0.25 | inactive | inactive | inactive | inactive | inactive | inactive |  |
| Nc1cc(=O)n(C(=S)Nc2ccc(Cl)nc2)[nH]1 | 144 µM | 0.5 µg/mL (≈ 1.85 µM) | 0.25 µg/mL | 0.5 µg/mL | 0.52 |  |  |  |  |  |  | MIC (Nakaseomyces glabratus [7]): 0.25 µg/mL (≈ 0.927 µM); MIC (Nakaseomyces glabratus [8]): 0.25 µg/mL (≈ 0.927 µM); MIC (Candida albicans [12]): 4 µg/mL (≈ 14.8 µM); MIC (Candida tropicalis): 4 µg/mL (≈ 14.8 µM); MIC (Candida parapsilosis): 4 µg/mL (≈ 14.8 µM); MIC ([Candida] auris [13]): 2 µg/mL (≈ 7.42 µM); MIC ([Candida] auris [14]): 2 µg/mL (≈ 7.42 µM); MIC (Aspergillus fumigatus): 16 µg/mL (≈ 59.3 µM); MIC (Nannizzia gypsea): 1 µg/mL (≈ 3.71 µM); MIC (Trichophyton rubrum): 1 µg/mL (≈ 3.71 µM); MIC (Cryptococcus neoformans): 0.063 µg/mL (≈ 0.234 µM) |
| N#CCC(=O)NNC(=S)Nc1ccc2c(c1)CCC2 | 256 µM | 16 µg/mL (≈ 58.3 µM) | 8 µg/mL | 1 µg/mL | 0.53 | inactive | inactive | inactive | inactive | inactive | inactive |  |
| N#CCC(=O)NNC(=O)Nc1ccc(Cl)cc1 | 275 µM | 64 µg/mL (≈ 253 µM) | 4 µg/mL | 16 µg/mL | 0.56 | inactive | inactive | inactive | inactive | inactive | inactive |  |
| N#CCC(=O)NNC(=S)Nc1ccc(N2CCOCC2)cc1 | 622 µM | 16 µg/mL (≈ 50.1 µM) | 8 µg/mL | 0.5 µg/mL | 0.52 | inactive | inactive | inactive | inactive | inactive | inactive |  |
| Nc1cc(=O)n(C(=S)Nc2ccc(Cl)c(Cl)c2)[nH]1 | 109 µM | 0.25 µg/mL (≈ 0.825 µM) | 0.13 µg/mL | 0.25 µg/mL | 0.53 |  |  |  |  |  |  | MIC (Nakaseomyces glabratus [7]): 0.25 µg/mL (≈ 0.825 µM); MIC (Nakaseomyces glabratus [8]): 0.25 µg/mL (≈ 0.825 µM); MIC (Candida albicans [12]): 4 µg/mL (≈ 13.2 µM); MIC (Candida tropicalis): 4 µg/mL (≈ 13.2 µM); MIC (Candida parapsilosis): 4 µg/mL (≈ 13.2 µM); MIC ([Candida] auris [13]): 2 µg/mL (≈ 6.6 µM); MIC ([Candida] auris [14]): 2 µg/mL (≈ 6.6 µM); MIC (Aspergillus fumigatus): 16 µg/mL (≈ 52.8 µM); MIC (Nannizzia gypsea): 1 µg/mL (≈ 3.3 µM); MIC (Trichophyton rubrum): 1 µg/mL (≈ 3.3 µM); MIC (Cryptococcus neoformans): 0.063 µg/mL (≈ 0.208 µM) |
| N#CCC(=O)NNC(=S)Nc1cccc(Cl)c1Cl | 37.1 µM | 16 µg/mL (≈ 52.8 µM) | 8 µg/mL | 2 µg/mL | 0.56 | inactive | inactive | inactive | inactive | inactive | inactive |  |
| COc1ccc(NC(=S)NNC(=O)CC#N)cc1 | 348 µM | > 64 µg/mL | 2 µg/mL | 16 µg/mL | 0.53 | inactive | inactive | inactive | inactive | inactive | inactive |  |
